Measured values as given in ChEMBL document CHEMBL5331090, “Modes of action insights from the crystallographic structures of retinoic acid receptor-related orphan receptor-γt (RORγt)” (Eur J Med Chem, 2023).

Legend:
[1] = biological target: T1, Nuclear receptor ROR-gamma (Homo sapiens, UniProt P51449); experiment: Antagonist activity at RORgammat LBD (unknown origin) LBD
T1 sequence (P51449 whole entry): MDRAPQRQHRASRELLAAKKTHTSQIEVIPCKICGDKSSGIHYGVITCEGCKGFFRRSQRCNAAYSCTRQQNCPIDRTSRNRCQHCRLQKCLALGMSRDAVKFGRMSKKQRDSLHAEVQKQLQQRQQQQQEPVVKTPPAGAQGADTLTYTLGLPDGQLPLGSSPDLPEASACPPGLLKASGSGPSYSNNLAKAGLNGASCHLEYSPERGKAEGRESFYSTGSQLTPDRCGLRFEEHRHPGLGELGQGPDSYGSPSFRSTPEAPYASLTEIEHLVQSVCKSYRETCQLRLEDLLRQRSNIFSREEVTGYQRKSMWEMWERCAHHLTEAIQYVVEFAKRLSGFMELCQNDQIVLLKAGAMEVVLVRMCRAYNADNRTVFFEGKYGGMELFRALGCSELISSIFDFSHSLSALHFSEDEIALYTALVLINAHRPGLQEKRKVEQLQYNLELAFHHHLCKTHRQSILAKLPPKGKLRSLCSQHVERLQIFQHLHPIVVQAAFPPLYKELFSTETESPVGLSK

[2] = Antagonist activity at RORgammat LBD (unknown origin)/NCoR2 (unknown origin) interaction; set-up: species or system Homo sapiens

IC50 [1]: 1.8 µM | IC50 [2]: 3.9 µM
SMILES: C[C@H]1O[C@@H](O[C@H]2[C@@H](O)C[C@H](O[C@H]3[C@@H](O)C[C@H](O[C@H]4CC[C@@]5(C)[C@H](CC[C@@H]6[C@@H]5C[C@@H](O)[C@]5(C)[C@@H](C7=CC(=O)OC7)CC[C@]65O)C4)O[C@@H]3C)O[C@@H]2C)C[C@H](O)[C@@H]1O [DIGOXIN]
